# Source: patent US10351547B2, “Somatostatin modulators and uses thereof” (priority 2016, dated 2019)
# Target: human SSTR2 (Homo sapiens (Human), UniProt P30874)
# Assay: Human SSTR2 intracellular cAMP functional assay for agonists (HTRF)
# Format: cell-based
# Conditions: not given
# Method in brief: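 Cells bearing human SSTR2 exposed to compound for 20 minutes at 37 °C; after lysis, cAMP measured by time-resolved fluorescence (HTRF) and converted via a standard curve. EC50 calculated from cAMP versus compound concentration.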
# Sequence of human SSTR2 (P30874 whole entry): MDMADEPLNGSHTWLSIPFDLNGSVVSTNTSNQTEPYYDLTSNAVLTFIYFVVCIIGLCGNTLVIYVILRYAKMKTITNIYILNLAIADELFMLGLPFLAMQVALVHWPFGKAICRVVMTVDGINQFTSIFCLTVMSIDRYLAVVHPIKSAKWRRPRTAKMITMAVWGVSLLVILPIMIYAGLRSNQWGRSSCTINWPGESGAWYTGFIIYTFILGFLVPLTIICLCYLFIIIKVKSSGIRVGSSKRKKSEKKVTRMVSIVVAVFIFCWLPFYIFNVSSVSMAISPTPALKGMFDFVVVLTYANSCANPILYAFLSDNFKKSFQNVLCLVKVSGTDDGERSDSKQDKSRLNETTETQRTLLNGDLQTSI
row,SMILES,EC50 [nM]
1,"CON=Cc1cc(-c2ccc3ncc(-c4cc(C)cc(F)c4)c(N4CCC(N)CC4)c3c2)ccc1O [2-213, 4-[4-(4-aminopiperidin-1-yl)-3-(3-fluoro-5-methylphenyl)quinolin-6-yl]-2-[(methoxyimino)methyl]phenol]",10 to 100
2,"CONC(=O)Nc1nccc(C)c1-c1ccc2ncc(-c3cc(C)cc(F)c3)c(N3CCC(N)CC3)c2c1 [2-215, 1-{3-[4-(4-aminopiperidin-1-yl)-3-(3-fluoro-5-methylphenyl)quinolin-6-yl]-4-methylpyridin-2-yl}-3-methoxyurea]",10 to 100

# Same assay, conditions: CHO-K1 cells stably expressing human SSTR2; NKH477-stimulated cAMP; read-out: EC50 (inhibition of cAMP activities via human SST2R)
row,SMILES,EC50 [nM]
1,"NC1CCN(c2c(-c3cc(F)cc(C(F)(F)F)c3)cnc3ccc(-c4cncc(F)c4C=NO)cc23)CC1 [2-176, 1-(6-{5-fluoro-4-[(hydroxyimino)methyl]pyridin-3-yl}-3-[3-fluoro-5-(trifluoromethyl)phenyl]quinolin-4-yl)piperidin-4-amine]",< 10
2,"N#Cc1cncc(-c2ccc3ncc(-c4cc(F)cc(F)c4)c(N4CCC(N)CC4)c3c2)c1N [2-177, 4-amino-5-[4-(4-aminopiperidin-1-yl)-3-(3,5-difluorophenyl)quinolin-6-yl]pyridine-3-carbonitrile]",< 10
3,"Cc1cc(F)cc(-c2cnc3ccc(-c4cc(F)cnc4N)cc3c2N2CCC(N)CC2)c1 [2-178, 3-[4-(4-aminopiperidin-1-yl)-3-(3-fluoro-5-methylphenyl)quinolin-6-yl]-5-fluoropyridin-2-amine]",< 10
4,"N#Cc1cc(F)c(F)c(-c2ccc3ncc(-c4cc(F)cc(F)c4)c(N4CCC(N)CC4)c3c2)c1N [2-179, 2-amino-3-[4-(4-aminopiperidin-1-yl)-3-(3,5-difluorophenyl)quinolin-6-yl]-4,5-difluorobenzonitrile]",< 10
5,"COC(=O)Nc1c(C#N)cc(F)c(F)c1-c1ccc2ncc(-c3cc(F)cc(F)c3)c(N3CCC(N)CC3)c2c1 [2-180, methyl N-{2-[4-(4-aminopiperidin-1-yl)-3-(3,5-difluorophenyl)quinolin-6-yl]-6-cyano-3,4-difluorophenyl}carbamate]",< 10
6,"Cc1cc(F)cc(-c2cnc3ccc(-c4cncc(Cl)c4N)cc3c2N2CCC(N)CC2)c1 [2-181, 3-[4-(4-aminopiperidin-1-yl)-3-(3-fluoro-5-methylphenyl)quinolin-6-yl]-5-chloropyridin-4-amine]",< 10
7,"CONC(=O)Nc1ncc(F)cc1-c1ccc2ncc(-c3cc(C)cc(F)c3)c(N3CCC(N)CC3)c2c1 [2-183, 1-{3-[4-(4-aminopiperidin-1-yl)-3-(3-fluoro-5-methylphenyl)quinolin-6-yl]-5-fluoropyridin-2-yl}-3-methoxyurea]",< 10
8,"COC(=O)Nc1c(Cl)cncc1-c1ccc2ncc(-c3cc(C)cc(F)c3)c(N3CCC(N)CC3)c2c1 [2-184, methyl N-{3-[4-(4-aminopiperidin-1-yl)-3-(3-fluoro-5-methylphenyl)quinolin-6-yl]-5-chloropyridin-4-yl}carbamate]",< 10
9,COC(=O)Nc1ccc(C#N)cc1-c1ccc2ncc(-c3cc(F)cc(F)c3)c(N3CCC(N)CC3)c2c1 [2-185],< 10
10,"CONC(=O)Nc1c(Cl)cncc1-c1ccc2ncc(-c3cc(C)cc(F)c3)c(N3CCC(N)CC3)c2c1 [2-186, 1-{3-[4-(4-aminopiperidin-1-yl)-3-(3-fluoro-5-methylphenyl)quinolin-6-yl]-5-chloropyridin-4-yl}-3-methoxyurea]",< 10
11,"Cc1cc(F)cc(-c2cnc3ccc(-c4cncc(C#N)c4N)cc3c2N2CCC(N)CC2)c1 [2-187, 4-amino-5-[4-(4-aminopiperidin-1-yl)-3-(3-fluoro-5-methylphenyl)quinolin-6-yl]pyridine-3-carbonitrile]",< 10
12,"Cn1ncc(-c2ccc3ncc(-c4cc(F)cc(F)c4)c(N4CCC(N)CC4)c3c2)c1C=NO [2-188, 1-[3-(3,5-difluorophenyl)-6-{5-[(hydroxyimino)methyl]-1-methyl-1H-pyrazol-4-yl}quinolin-4-yl]piperidin-4-amine]",< 10
13,"CONC(=O)Nc1ccc(C#N)cc1-c1ccc2ncc(-c3cc(F)cc(F)c3)c(N3CCC(N)CC3)c2c1 [2-189, 1-{2-[4-(4-aminopiperidin-1-yl)-3-(3,5-difluorophenyl)quinolin-6-yl]-4-cyanophenyl}-3-methoxyurea]",< 10
14,"CON(C)C(=O)Nc1c(C#N)cc(F)c(F)c1-c1ccc2ncc(-c3cc(F)cc(F)c3)c(N3CCC(N)CC3)c2c1 [2-191, 1-{2-[4-(4-aminopiperidin-1-yl)-3-(3,5-difluorophenyl)quinolin-6-yl]-6-cyano-3,4-difluorophenyl}-3-methoxy-3-methylurea]",< 10
15,"NC1CCN(c2c(-c3cc(F)cc(F)c3)cnc3ccc(-c4cncc(Cl)c4C=NO)cc23)CC1 [2-192, 1-(6-{5-chloro-4-[(hydroxyimino)methyl]pyridin-3-yl}-3-(3,5-difluorophenyl)quinolin-4-yl)piperidin-4-amine]",< 10
16,"COCOc1c(C#N)cc(F)cc1-c1ccc2ncc(-c3cc(F)cc(F)c3)c(N3CCC(N)CC3)c2c1 [2-194, 3-[4-(4-aminopiperidin-1-yl)-3-(3,5-difluorophenyl)quinolin-6-yl]-5-fluoro-2-(methoxymethoxy)benzonitrile]",< 10
17,"NC1CCN(c2c(-c3cc(F)cc(F)c3)cnc3ccc(-c4ncccc4C=NO)cc23)CC1 [2-195, 1-[3-(3,5-difluorophenyl)-6-{3-[(hydroxyimino)methyl]pyridin-2-yl}quinolin-4-yl]piperidin-4-amine]",< 10

row,SMILES,EC50 [nM]
1,"NC1CCN(c2c(-c3cc(F)cc(F)c3)cnc3ccc(-c4cccnc4C=NO)cc23)CC1 [2-196, 1-[3-(3,5-difluorophenyl)-6-{2-[(hydroxyimino)methyl]pyridin-3-yl}quinolin-4-yl]piperidin-4-amine]",< 10
2,"COC(=O)Nc1c(F)cc(F)cc1-c1ccc2ncc(-c3cc(C)cc(F)c3)c(N3CCC(N)CC3)c2c1 [2-197, methyl N-{2-[4-(4-aminopiperidin-1-yl)-3-(3-fluoro-5-methylphenyl)quinolin-6-yl]-4,6-difluorophenyl}carbamate]",< 10
3,"CON(C)C(=O)Nc1c(F)cc(F)cc1-c1ccc2ncc(-c3cc(C)cc(F)c3)c(N3CCC(N)CC3)c2c1 [2-198, 1-{2-[4-(4-aminopiperidin-1-yl)-3-(3-fluoro-5-methylphenyl)quinolin-6-yl]-4,6-difluorophenyl}-3-methoxy-3-methylurea]",< 10
4,"Cc1cc(F)cc(-c2cnc3ccc(-c4cc(F)cc(F)c4NC(=O)N(C)C)cc3c2N2CCC(N)CC2)c1 [2-199, 1-{2-[4-(4-aminopiperidin-1-yl)-3-(3-fluoro-5-methylphenyl)quinolin-6-yl]-4,6-difluorophenyl}-3,3-dimethylurea]",< 10
5,"NC1CCN(c2c(-c3cc(F)cc(F)c3)cnc3ccc(-c4cccc(C=NO)n4)cc23)CC1 [2-200, 1-[3-(3,5-difluorophenyl)-6-{6-[(hydroxyimino)methyl]pyridin-2-yl}quinolin-4-yl]piperidin-4-amine]",< 10
6,"Cc1ccc(F)c(C=NO)c1-c1ccc2ncc(-c3cc(F)cc(F)c3)c(N3CCC(N)CC3)c2c1 [2-202, 1-[3-(3,5-difluorophenyl)-6-{3-fluoro-2-[(hydroxyimino)methyl]-6-methylphenyl}quinolin-4-yl]piperidin-4-amine]",< 10
7,"NC1CCN(c2c(-c3cc(F)cc(F)c3)cnc3ccc(-c4ccnc(C=NO)c4)cc23)CC1 [2-203, 1-[3-(3,5-difluorophenyl)-6-{2-[(hydroxyimino)methyl]pyridin-4-yl}quinolin-4-yl]piperidin-4-amine]",< 10
8,"COCCOc1c(C#N)cc(F)cc1-c1ccc2ncc(-c3cc(C)cc(F)c3)c(N3CCC(N)CC3)c2c1 [2-204, 3-[4-(4-aminopiperidin-1-yl)-3-(3-fluoro-5-methylphenyl)quinolin-6-yl]-5-fluoro-2-(2-methoxyethoxy)benzonitrile]",< 10
9,COC(=O)Nc1c(C#N)cc(F)c(F)c1-c1ccc2ncc(-c3cc(C)cc(F)c3)c(N3CCC(N)CC3)c2c1 [2-205],< 10
10,"CON(C)C(=O)Nc1c(C#N)cc(F)c(F)c1-c1ccc2ncc(-c3cc(C)cc(F)c3)c(N3CCC(N)CC3)c2c1 [2-206, 1-{2-[4-(4-aminopiperidin-1-yl)-3-(3-fluoro-5-methylphenyl)quinolin-6-yl]-6-cyano-3,4-difluorophenyl}-3-methoxy-3-methylurea]",< 10
11,"COC(=O)Nc1c(F)cccc1-c1ccc2ncc(-c3cc(C)cc(F)c3)c(N3CCC(N)CC3)c2c1 [2-209, methyl N-{2-[4-(4-aminopiperidin-1-yl)-3-(3-fluoro-5-methylphenyl)quinolin-6-yl]-6-fluorophenyl}carbamate]",< 10
12,"CON(C)C(=O)Nc1c(F)cccc1-c1ccc2ncc(-c3cc(C)cc(F)c3)c(N3CCC(N)CC3)c2c1 [2-210, 1-{2-[4-(4-aminopiperidin-1-yl)-3-(3-fluoro-5-methylphenyl)quinolin-6-yl]-6-fluorophenyl}-3-methoxy-3-methylurea]",< 10
13,"Cc1cc(F)cc(-c2cnc3ccc(-c4cn(C)nc4N)cc3c2N2CCC(N)CC2)c1 [2-211, 1-[6-(3-amino-1-methyl-1H-pyrazol-4-yl)-3-(3-fluoro-5-methylphenyl)quinolin-4-yl]piperidin-4-amine]",< 10
14,"CONC(=O)Nc1nn(C)cc1-c1ccc2ncc(-c3cc(C)cc(F)c3)c(N3CCC(N)CC3)c2c1 [2-212, 1-{4-[4-(4-aminopiperidin-1-yl)-3-(3-fluoro-5-methylphenyl)quinolin-6-yl]-1-methyl-1H-pyrazol-3-yl}-3-methoxyurea]",< 10
15,"COC(=O)Nc1nn(C)cc1-c1ccc2ncc(-c3cc(C)cc(F)c3)c(N3CCC(N)CC3)c2c1 [2-214, methyl N-{4-[4-(4-aminopiperidin-1-yl)-3-(3-fluoro-5-methylphenyl)quinolin-6-yl]-1-methyl-1H-pyrazol-3-yl}carbamate]",< 10
16,"Cc1cc(F)cc(-c2cnc3ccc(-c4cc(F)cc(F)c4NC(=O)NOC(C)C)cc3c2N2CCC(N)CC2)c1 [2-216, 1-{2-[4-(4-aminopiperidin-1-yl)-3-(3-fluoro-5-methylphenyl)quinolin-6-yl]-4,6-difluorophenyl}-3-(propan-2-yloxy)urea]",< 10
